US20230107538A1, “CYCLOALKYL-CONTAINING CARBOXYLIC ACIDS AND USES THEREOF” (LIMINAL BIOSCIENCES LIMITED, priority 2019, published 2023)

Columns and labels:
[1] = target: T1, human PPARγ ligand binding domain (LBD) (Homo sapiens, UniProt P37231); test: Cell-based GAL4 PPAR transactivation assay in HEK293 cells, PPARγ; details: 24 h
T1 construct: PPARγ (S176-Y477); host or cells: HEK293
T1 sequence (P37231 176-477 isoform P37231-2): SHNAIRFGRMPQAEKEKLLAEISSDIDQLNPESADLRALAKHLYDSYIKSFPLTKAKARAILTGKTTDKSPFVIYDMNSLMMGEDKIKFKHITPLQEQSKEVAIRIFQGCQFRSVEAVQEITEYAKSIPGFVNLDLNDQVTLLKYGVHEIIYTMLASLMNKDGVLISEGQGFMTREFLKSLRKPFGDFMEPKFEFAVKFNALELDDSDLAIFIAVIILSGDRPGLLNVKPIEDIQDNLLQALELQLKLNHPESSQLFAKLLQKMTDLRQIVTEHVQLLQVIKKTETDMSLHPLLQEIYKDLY
Description: (§1) The peroxisome proliferator-activated receptors (PPARs), PPARα, PPARδ, and PPARγ are ligand-dependent transcription factors that control expression of several key metabolism-associated genes. The transcriptional activity of representative compounds of formula I to these receptors was assessed using a cell-based GAL4 transactivation assay in HEK293 cells transfected with either PPARα, PPARδ, or PPARγ ligand binding domain (LBD), and was compared to that of the full control agonists GW7647 (PPARα), GW0742 (PPARδ), and rosiglitazone (PPARγ).
(§2) Plasmids: The hinge region and ligand binding domain (LBD) from human PPARα (S167-Y468), PPARδ (S139-Y440) and PPARγ (S176-Y477) were PCR-amplified from a PPARα cDNA clone (cDNA Resource Center, http://www.cdna.org) or from PPARδ1 and PPARγ1 LBD gBlocks™ gene fragments (Integrated DNA Technologies). The PPAR LBD PCR products were inserted in frame with the GAL4 DNA binding domain in the pFN26A(BIND)-hRlu-neo Flexi vector (Promega) at SgfI and PmeI sites to generate GAL4-PPAR-Rluc.
(§3) Cell-based PPAR transactivation assay. HEK293 cells were co-transfected with pGL4.35[luc2P/9XGAL4UAS/Hygro] (Promega) and GAL4-PPAR-Rluc plasmids, and after 24 h of incubation were treated with compounds for 24 h. Luciferase activity was determined with the Dual Glo™ luciferase assay (Promega). Firefly luminescence was normalized to the constitutively expressed Renilla luminescence, and results expressed as fold induction of vehicle control or percentage of reference agonist maximal activity.

[2] = target: T2, human PPARα ligand binding domain (LBD) (Homo sapiens, UniProt Q07869); test: Cell-based GAL4 PPAR transactivation assay in HEK293 cells, PPARα; details: 24 h
T2 construct: human PPARα (S167-Y468); expressed in transfected cells; host or cells: HEK293
T2 sequence (Q07869 167-468): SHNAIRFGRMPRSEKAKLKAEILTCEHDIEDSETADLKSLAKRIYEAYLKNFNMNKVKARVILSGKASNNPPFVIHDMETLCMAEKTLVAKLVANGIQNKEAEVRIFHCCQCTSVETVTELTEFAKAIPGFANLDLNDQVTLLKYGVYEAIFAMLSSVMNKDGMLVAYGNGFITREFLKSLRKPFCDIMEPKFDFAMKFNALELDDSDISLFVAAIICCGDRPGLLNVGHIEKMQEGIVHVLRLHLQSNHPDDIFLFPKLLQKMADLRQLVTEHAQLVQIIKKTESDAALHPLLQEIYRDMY
Description: as §1, §2, §3

[3] = target: T3, human PPARδ ligand binding domain (LBD) (Homo sapiens, UniProt Q03181); test: Cell-based GAL4 PPAR transactivation assay in HEK293 cells, PPARδ; details: 24 h
T3 construct: PPARδ (S139-Y440); host or cells: HEK293
T3 sequence (Q03181 139-441 limits assumed): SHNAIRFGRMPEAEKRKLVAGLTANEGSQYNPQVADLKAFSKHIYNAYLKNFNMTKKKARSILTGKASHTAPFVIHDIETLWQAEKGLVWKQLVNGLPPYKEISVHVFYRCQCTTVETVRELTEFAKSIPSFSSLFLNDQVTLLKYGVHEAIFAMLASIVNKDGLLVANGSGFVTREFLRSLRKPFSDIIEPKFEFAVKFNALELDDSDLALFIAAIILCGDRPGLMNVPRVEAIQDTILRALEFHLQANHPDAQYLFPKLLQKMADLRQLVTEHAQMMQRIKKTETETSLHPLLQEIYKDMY
Description: as §1, §2, §3

Row | melting point [°C] | PPARγ (GAL4 reporter) % efficacity relative to rosiglitazone [1] [%] | PPARα (GAL4 reporter) % efficacity relative to GW7647 [2] [%] | PPARδ (GAL4 reporter) % efficacity relative to GW0742 [3] [%] | Structure (SMILES)
1 | 108 to 111 | – | – | – | CCCCCCC1C(CC(=O)[O-])C1(Br)Br.[Na+] (stereo not shown) [Compound II, Sodium 2-(2,2-dibromo-3-hexylcyclopropyl)acetate]
2 | – | 8 | 91 | 2 | CCCCCCC1C(CC(=O)[O-])C1(C)C.[Na+] (stereo not shown) [drawing 322]
3 | – | 4 | 33 | −6 | CCCCCCC1C(CC(=O)[O-])C1(C)C.[Na+] (stereo not shown) [drawing 323]
